Patent US11512097B2, “Heterocyclic compounds as Delta-5 desaturase inhibitors and methods of use” (Amgen Inc., priority 2019, dated 2022)

Tests used:
[1] = test system: Diet-Induced Obese (DIO) mice; test: Assessment of D5D inhibitor in Diet-Induced Obese (DIO) mice; type: in vivo, Male C57BL/6J DIO mice; details: for Fat mass / Lean mass: day 22, EchoMRI; for Blood glucose: day 25, 4 hour fasted; for AA / Cholesterol / DGLA / Insulin / LDL cholesterol / Triglycerides: day 25, 4 hour fasted plasma; for Body weight / Liver weights / epididymal WAT / inguinal WAT: day 27
From the text: Assessment of D5D Inhibitor in Diet-Induced Obese (DIO) Mice
Male C57BL/6J DIO mice (Jackson Laboratories, Stock No.: 380050) were fed high-fat diet (Research Diets, Inc., D12492) for 12 weeks. All animals were given free access to water and chow. Animals were acclimated to per os dosing for 3 days prior to the start of the experiment. Animals were randomized on body weight, fat mass, lean mass, and blood glucose concentrations in to groups of 8 to 10 animals per group. Animals were twice daily dosed per os with either: vehicle (2% hydroxypropyl methylcellulose and 1% tween 80 in water), Example 2 at 10 mg/kg, or 30 mg/kg (formulated in 2% hydroxypropyl methylcellulose and 1% tween 80 in water), or Example 45 at 3 mg/kg, or 10 mg/kg (formulated in 2% hydroxypropyl methylcellulose and 1% tween 80 in water). Three-day average (Example 2) or daily average (Example 45) food consumption was measured at the indicated times as shown in Table 17 and Table 18. Body composition (EchoMRI) was determined on day 78 for Example 2 and day 22 for Example 45. For Example 2, a non-fasted blood collection was performed on day 81; blood glucose was immediately measured, and plasma samples created from the remaining blood and used to measure DGLA and AA concentrations. On day 84, a 4-hour fasted blood collection was performed, and plasma samples were created from the blood and used to measure cholesterol, triglycerides, low-density lipoprotein (LDL) cholesterol, insulin, and adipokine (adiponectin, leptin, and resistin) levels. For Example 45, 4 hour fasted blood samples were collected on day 25 and blood glucose was measured immediately and the plasma samples created from the remaining blood were used to measure cholesterol, triglycerides, LDL cholesterol, insulin, DGLA and AA concentration. At the end of the studies, liver, epididymal white adipose tissue, inguinal white adipose tissue, mesenteric (only Example 2) white adipose tissue weights were recorded. Data was analyzed using GraphPad Prism v 7.04.
The D5D inhibitor dose-dependently led to weight loss over the course of the experiment (Table 17 and Table 18) compared to vehicle controls. Consistently fat mass was reduced, along with lower inguinal, epididymal and mesenteric white adipose tissue (WAT) weights at necropsy. Blood glucose and plasma insulin levels were both reduced by the D5D inhibitor, along with reductions in plasma cholesterol and triglycerides. Evidence of target engagement was established by observing increases in plasma DGLA and decreases in plasma AA.

[2] = target: T1, Delta-5-Desaturase (D5D), membrane preparations of D5D-overexpressing HEK293 6E cells (Homo sapiens, UniProt O60427); test: In vitro measurement of Delta-5-Desaturase inhibitory activity using DGLA-CoA and Arachidonyl-CoA mass spectrometric assays; type: biochemical; details: D5D membrane 10 μg/mL, one-hour incubation, average of at least two independent runs
T1 construct: expressed in transfected cells; host or cells: HEK293 6E cells (membrane preparation)
T1 sequence (O60427 whole entry, species assumed): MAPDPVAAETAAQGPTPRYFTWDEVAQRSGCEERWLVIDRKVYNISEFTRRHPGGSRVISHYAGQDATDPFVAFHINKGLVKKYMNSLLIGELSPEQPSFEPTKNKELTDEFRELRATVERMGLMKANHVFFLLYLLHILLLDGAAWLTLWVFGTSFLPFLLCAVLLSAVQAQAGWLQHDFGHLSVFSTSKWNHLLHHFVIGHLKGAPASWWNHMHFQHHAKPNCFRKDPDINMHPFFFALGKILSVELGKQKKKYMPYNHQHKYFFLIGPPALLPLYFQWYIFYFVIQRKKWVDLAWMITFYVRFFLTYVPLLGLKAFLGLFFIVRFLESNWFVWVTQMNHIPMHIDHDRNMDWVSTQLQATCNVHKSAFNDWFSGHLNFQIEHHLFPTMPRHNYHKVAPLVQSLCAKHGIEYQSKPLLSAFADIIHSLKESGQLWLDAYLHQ
Method in brief: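 Substrate mix (0.01 mM DGLA with NADH, ATP, coenzyme A) was incubated 1 h at room temperature with HEK293 6E D5D membranes at 10 μg/mL final, pH 7.5. Negative-mode SPE-MS/MS monitored DGLA-CoA (m/z 526.6) and arachidonyl-CoA (m/z 525.6). Inhibition normalised to DMSO and no-enzyme wells gave IC50s, mean of ≥2 runs.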

Delta-5-Desaturase (D5D) = target: T2, Delta-5-Desaturase (D5D) (Mus musculus, UniProt Q920L1); test: In vivo measurement of Delta-5-Desaturase inhibitory activity (plasma AA/DGLA ratio in DIO mice); details: single oral dose 30 mg/kg, relative to vehicle group
T2 construct: tissue Jackson Laboratories strain #3800050; host or cells: whole animal (DIO mice)
T2 sequence (Q920L1 1-447): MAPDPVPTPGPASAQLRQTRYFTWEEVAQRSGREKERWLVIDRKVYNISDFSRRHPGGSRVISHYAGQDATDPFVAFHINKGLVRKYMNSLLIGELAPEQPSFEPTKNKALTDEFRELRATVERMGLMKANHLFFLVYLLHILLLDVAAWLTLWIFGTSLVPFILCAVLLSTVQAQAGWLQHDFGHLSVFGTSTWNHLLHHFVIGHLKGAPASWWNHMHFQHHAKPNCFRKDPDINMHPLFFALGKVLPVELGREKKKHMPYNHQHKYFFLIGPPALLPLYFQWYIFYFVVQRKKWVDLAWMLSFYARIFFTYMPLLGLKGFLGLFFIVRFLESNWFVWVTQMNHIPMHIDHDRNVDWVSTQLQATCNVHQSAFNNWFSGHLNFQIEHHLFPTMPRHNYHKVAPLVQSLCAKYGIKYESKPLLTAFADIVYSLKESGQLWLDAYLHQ
Method: In Vivo Measurement of Delta-5-Desaturase Inhibitory Activity
Diet-induced obese (DIO; Jackson Laboratories strain #[…]) mice were used to screen for pharmacodynamic (PD) activity of test compounds. Generally, 14 to 24 week old DIO mice, were administered test compounds formulated in the vehicle of 2% hydroxypropyl methylcellulose (HPMC) and 1% Tween80. Animals were dosed on body weight by oral gavage with a single dose (30 mg/kg) for PD studies. Necropsy included plasma collection for PUFA analysis. 10 μl of plasma or standards diluted in surrogate matrix (65 g/l bovine serum albumin in Dulbecco's phosphate-buffered saline) were mixed with 10 μl of an internal standard (100 μM alpha-linolenic acid-d14 (ALA-d14, Cayman Chemical)) in a 96 well plate. 100 μl of 2N NAOH was added to the mixture for subsequent saponification at 65° C. for 1 hour. The mixture was then acidified with 50 μl of formic acid followed by two consecutive hexane extractions. Hexane (500 μl) was added and the mixture thoroughly mixed by vortexing, followed by centrifugation at 4,000 rpm for 15 min. The hexane phase was transferred to a new 1 ml 96 well plate and the remaining aqueous layer was extracted with hexane. The organic extracts were combined and the solvent was removed by placing the plate under nitrogen gas at 55° C. 250 μl of 90% methanol was added to the plate followed by vortexing for 2 minutes. 200 μl of the samples were transferred to a new 96 well polypropylene plate. The samples were analyzed on a LC-MS/MS for the following PUFAs: arachidonic acid (AA), dihomo-gamma-linolenic acid (DGLA), with ALA-d14 as the internal standard. Description of the LC-MS/MS method: 5 μl of sample was injected onto a Poroshell 120 EC-C18 3.0×50 mm, 1.9 μm id column. […] The PUFA peak areas were quantified by using the SCIEX Analyst software. […] The relative decrease of the AA/DGLA ratio of the test compound administered group relative to the vehicle administered group was calculated and used as an index for the degree of D5D inhibition. […]

[3] = Example 45 3 mg/kg twice daily per os
[4] = Example 45 10 mg/kg twice daily per os

With `O=c1c(-c2cnn(CC(F)(F)C(F)(F)F)c2)c(C(F)(F)F)nc2sc(CO)nn12` [Example 45, 2-(hydroxymethyl)-6-[1-(2,2,3,3,3-pentafluoropropyl)-1H-pyrazol-4-yl]-7-(trifluoromethyl)-5H-[1,3,4]thiadiazolo[3,2-a]pyrimidin-5-one] the Food consumption ([1]; Example 45 3 mg/kg twice daily per os, day 0, daily average) was 2.5 ± 0.3 g/day, the Food consumption ([1]; Example 45 3 mg/kg twice daily per os, day 7, daily average) was 3.0 ± 0.3 g/day and the Food consumption ([1]; Example 45 3 mg/kg twice daily per os, day 14, daily average) was 2.7 ± 0.3 g/day. It also gave a Food consumption ([1]; Example 45 3 mg/kg twice daily per os, day 21, daily average) of 2.7 ± 0.2 g/day, a Fat mass [1, 3] of 19.7 ± 2.2 g and a Lean mass [1, 3] of 27.4 ± 1.5 g. For the same molecule, the Blood glucose [1, 3] was 176.1 ± 9.4 mg/dL, the AA [1, 3] was 88.6 ± 18.9 µg/mL and the Cholesterol [1, 3] was 160.4 ± 43.7 mg/dL. It also gave a DGLA [1, 3] of 286.9 ± 47.7 µg/mL, an Insulin [1, 3] of 7.2 ± 1.8 ng/mL and an LDL cholesterol [1, 3] of 130.6 ± 25.1 mg/dL. The Triglycerides [1, 3] was 32.6 ± 5.2 mg/dL, the Body weight [1, 3] was 47.8 ± 2.8 g and the Liver weights [1, 3] was 2.6 ± 0.4 g. The “epididymal WAT” value [1, 3] was 1.8 ± 0.3 g, the “inguinal WAT” value [1, 3] was 2.2 ± 0.5 g and the Food consumption ([1]; Example 45 3 mg/kg twice daily per os, day 27, daily average) was 2.5 ± 0.2 g/day. For the same molecule, the Food consumption ([1]; Example 45 10 mg/kg twice daily per os, day 0, daily average) was 2.6 ± 0.3 g/day, the Food consumption ([1]; Example 45 10 mg/kg twice daily per os, day 7, daily average) was 2.6 ± 0.3 g/day and the Food consumption ([1]; Example 45 10 mg/kg twice daily per os, day 14, daily average) was 2.4 ± 0.2 g/day. It also gave a Food consumption ([1]; Example 45 10 mg/kg twice daily per os, day 21, daily average) of 2.5 ± 0.2 g/day, a Fat mass [1, 4] of 16.9 ± 2.3 g and a Lean mass [1, 4] of 26.7 ± 1.1 g. For the same molecule, the Blood glucose [1, 4] was 156.1 mg/dL, the AA [1, 4] was 38.2 ± 3.6 µg/mL and the Cholesterol [1, 4] was 162.8 mg/dL. It also gave a DGLA [1, 4] of 212.6 µg/mL, an Insulin [1, 4] of 5.2 ± 0.7 ng/mL and an LDL cholesterol [1, 4] of 129.0 mg/dL. The Triglycerides [1, 4] was 26.3 ± 5.5 mg/dL, the Body weight [1, 4] was 43.8 ± 3.1 g and the Liver weights [1, 4] was 2.6 ± 0.5 g. The “epididymal WAT” value [1, 4] was 1.7 ± 0.3 g, the “inguinal WAT” value [1, 4] was 1.9 ± 0.2 g and the Food consumption ([1]; Example 45 10 mg/kg twice daily per os, day 27, daily average) was 2.4 ± 0.2 g/day. For the same molecule, the IC50 [2] was 21.1 nM.
For `Cn1c(Cl)cn2c(=O)c(-c3cnn(CC(F)(F)C(F)(F)F)c3)c(C(F)(F)F)nc12` [Example 48, 2-chloro-1-methyl-6-[1-(2,2,3,3,3-pentafluoropropyl)-1H-pyrazol-4-yl]-7-(trifluoromethyl)-1H,5H-imidazo[1,2-a]pyrimidin-5-one], the “Average % D5D Inhibition expressed as Plasma Endogenous AA/DGLA Ratio” value (Delta-5-Desaturase (D5D)) was 68% and the IC50 [2] was 6.8 nM.
For `Cc1cn2c(=O)c(-c3cnn(CC(F)(F)C(F)(F)F)c3)c(C(F)(F)F)nc2n1C` [Example 52, 1,2-dimethyl-6-[1-(2,2,3,3,3-pentafluoropropyl)-1H-pyrazol-4-yl]-7-(trifluoromethyl)-1H,5H-imidazo[1,2-a]pyrimidin-5-one], the “Average % D5D Inhibition expressed as Plasma Endogenous AA/DGLA Ratio” value (Delta-5-Desaturase (D5D)) was 74% and the IC50 [2] was 47.5 nM.
